Patent US6322789A, “HLA-restricted hepatitis B virus CTL epitopes” (Epimmune, Inc., priority 1995, dated 2001)
No end group written: not given here.

Experiments:
[1] = tested on: Jurkat A2.1/K^b target cells; test: CTL lysis after restimulation of splenocytes from mice primed with HBV-loaded spleen cells (Example I); assay type: cell-based, A2.1/K^b transgenic mice (effector cells); conditions: for representation of CTL epitopes: conclusion of Example I, FIGS. 1 and 2; for CTL lysis of Jurkat A2/K^b target cells: individual peptides, FIG. 1 panels E through H
[2] = tested on: Jurkat A2.1/K^b target cells; test: CTL induction from splenocytes of mice primed subcutaneously with purified HBV in IFA (Example II); assay type: cell-based, A2.1/K^b transgenic mice (effector cells); conditions: for ability to induce in vitro CTL from splenocytes of HBV-primed mice: FIGS. 3 and 4
[3] = tested on: B10.D2 fibroblasts in the presence of NP 148-155 peptide; test: CTL immunogenicity of modifications and formulations of PR8-NP 148-155 (Table I); assay type: in vivo, Balb/c mouse; conditions: in words
Protocol: Three weeks after immunization splenocytes were removed and stimulated in vitro with the flu 147-155 peptide. CTL activity was assayed one week later using ^51 Cr-labeled B10.D2 fibroblasts as targets. Target cells were tested in the absence of antigen, in the presence of Flu 147-155 peptide or following infection with influenza PR8 virus.
^b = CTL immunogenicity of various modifications and formulations of NP
result obtained from spleen cells derived from a single Balb/c mouse and
# the effector to target ratio (E:T) required to induce 40% antigen
specific lysis of ^51 Cr labeled B10D2 target cells in the presence of
ND148-155 peptide; +++ E:T below 10:1; ++ E + T between 10 + 1 and […]

[4] = tested on: Jurkat A2/K^b target cells; test: In vivo HBc 18-27-specific CTL priming by CTL and T helper epitopes (Example IV); set-up: species or system HLA-A2.1/K^b transgenic mice; conditions: for HBc18-27-specific CTL response: 100 μg subcutaneously, transgenic mice; for magnitude of HBc18-27-specific CTL activity relative to other immunogens: comparison in words; for requirement of prior T helper priming for CTL priming: without previous priming with 875.23 in CFA
Protocol: Animals were primed subcutaneously with 100 μg of 875.23 (T helper epitope) in Complete Freund's Adjuvant (CFA) followed 9 days later (subcutaneously) with […]. Splenocytes were removed 3 weeks later, cultured for 6 days in the presence of LPS-blasts that had been incubated with the CTL epitope (875.15), 100 μg for 2 hrs before being washed and added to the culture as a source of antigen presenting cells. The presence of HBc 18-27 (875.15)-specific CTL was determined using a standard 6 hr […] release assay with Jurkat A2.1/K^b cells as targets.
This example describes experiments which define the relative in vivo HBV-specific CTL priming efficiency of peptides expressing HBV CTL epitopes alone, CTL epitopes mixed with peptides containing T helper epitopes or CTL epitopes physically linked to T helper epitopes.
Nine days later each of the following peptides were injected subcutaneously into two unprimed and two helper-primed mice, 100 μg/mouse in incomplete Freund's adjuvant (IFA).
Three weeks after priming with the CTL epitope, splenocytes were in vitro restimulated with LPS blasts coated with HBc 18-27 (coating was achieved by incubating 30×10^6 LPS blasts with 100 μg of HBc18-27 in one ml of medium; after 1-2 hr at 37° C., the cells were washed). After 6 days, effector cells were assayed for lytic activity against ^51 Cr labelled Jurkat A2 /K^b target cells in the presence or absence of HBc18-27.

ovalbumin-specific CTL = conditions: cited from earlier work
[5] = tested on: Jurkat A2-1/Kb target cells; Jy target cells; Jy cells transfected with HBV core; set-up: species or system HLA-A2-1/kb transgenic mice; conditions: mouse, in vivo, sc
[6] = listed as linked peptides without spacer

Thr-Asn-Met-Gly-Leu-Lys-Phe-Arg-Gln-Leu-Leu-Trp-Phe-His-Ile-Ser-Cys-Leu-Thr-Phe [Peptide 802.03]
CTL response and its MHC class I mediation [1]: induces a CTL response which is mediated by at least the MHC class I molecule HLA-A2.1
representation of CTL epitopes [1]: defined as containing CTL epitopes
representation of CTL epitopes ([1]; listed as HBc 91-110): clearly represent CTL epitopes
CTL lysis of Jurkat A2/K^b target cells [1]: induced CTL lysis of Jurkat A2 /K^b target cells above background
ability to induce in vitro CTL from splenocytes of HBV-primed mice [2]: clearly able to induce in vitro CTL

ISQAVHAAHAEINE-AAA-TYQRTRALV (ISQAVHAAHAEINEAAATYQRTRALV) [Peptide 932.03]
comparison of constructs and formulations [3]: superior to mixing the T helper+CTL (i.e., non-linked) and worked well in IFA, but not well in saline or Alum

(PAM)2 KSSISQAVHAAHAEINE-TYQRTRALV ({(PAM)2}-KSSISQAVHAAHAEINETYQRTRALV) [Peptide 932.04]
comparison of constructs and formulations [3]: superior when injected in saline or Alum compared to all of the other combinations

NMGLKFRQLL [Peptide 883.02]
recognition of truncation peptides by CTL raised against the larger peptide [2]: recognized by the CTL raised against the larger epitopes
ability to induce in vitro CTL from splenocytes of HBV-primed mice [2]: clearly able to induce in vitro CTL

TPPAYRPPNAPILFLPSDFFPSV-NH2 [Peptide 902.01]
HBc18-27-specific CTL response [4]: HBc-specific (875.15) CTL activity was detected
HBc18-27-specific CTL response [4, 6]: induce specific CTL priming of animals in all animals studied
animals with HBc18-27-specific CTL response ([4]; 100 μg/mouse in IFA subcutaneously): 100%
magnitude of HBc18-27-specific CTL activity relative to other immunogens ([4]; listed as T helper epitope linked to the CTL epitope): greater than that detected when the epitopes were administered non-linked
magnitude of HBc18-27-specific CTL activity relative to other immunogens [4, 6]: at levels which were greater than when the CTL peptide and T helper peptide were administered unlinked
requirement of prior T helper priming for CTL priming [4]: previous priming of helper T cells was not required

LSPTVWLSVI [Peptide 884.02]
recognition of truncation peptides by CTL raised against the larger peptide [2]: recognized by the CTL raised against the larger epitopes
ability to induce in vitro CTL from splenocytes of HBV-primed mice [2]: clearly able to induce in vitro CTL

TPPAYRPPNAPILAAAFLPSDFFPSV-NH2 [Peptide 902.02]
magnitude of HBc18-27-specific CTL activity relative to other immunogens [4]: greatest HBc18-27 (875.15)-specific CTL activity was detected
magnitude of HBc18-27-specific CTL activity relative to other immunogens ([4]; listed as T helper and CTL HBV peptides were linked by a Ala-Ala-Ala spacer): specific CTL activity greater than induction of specific CTL activity with the linked peptides without spacer
magnitude of HBc18-27-specific CTL activity relative to other immunogens ([4]; listed as T helper and CTL epitopes via an alanine-alanine-alanine spacer): specific CTL activity greater than that detected by linking the T helper and CTL determinants alone
requirement of prior T helper priming for CTL priming [4]: previous priming of helper T cells was not required

ovalbumin: ovalbumin (OVA) in IFA
generation of CTL (ovalbumin-specific CTL; i.v. or i.p.): generally does not lead to the generation of CTL
ovalbumin-specific CTL response (ovalbumin-specific CTL; in IFA subcutaneously): induces an ovalbumin-specific CTL response in mice

MGLKFRQLLW [Peptide 883.03]
recognition of truncation peptides by CTL raised against the larger peptide [2]: recognized by the CTL raised against the larger epitopes
ability to induce in vitro CTL from splenocytes of HBV-primed mice [2]: clearly able to induce in vitro CTL

(PAM)2 KSS-ISQAVHAAHAEINE-AAA-TYQRTRALV ({(PAM)2}-KSSISQAVHAAHAEINEAAATYQRTRALV) [Peptide 932.05]
comparison of constructs and formulations [3]: superior when injected in saline or Alum compared to all of the other combinations

LSPTVWLSVIWMMWYWGPSL [Peptide 799.10]
representation of CTL epitopes [1]: defined as containing CTL epitopes
representation of CTL epitopes ([1]; listed as HBenv 349-368): clearly represent CTL epitopes
CTL lysis of Jurkat A2/K^b target cells [1]: induced CTL lysis of Jurkat A2 /K^b target cells above background
ability to induce in vitro CTL from splenocytes of HBV-primed mice [2]: clearly able to induce in vitro CTL

Ac-Gln-Tyr-Ile-Lys-Ala-Asn-Ser-Lys-Phe-Ile-Gly-Ile-Thr-Glu-Ala-Ala-Ala-Phe-Leu-Pro-Ser-Asp-Phe-Phe-Pro-Ser-Val-OH (Ac-QYIKANSKFIGITEAAAFLPSDFFPSV-OH) [Peptide 934.02]
CTL response specific for HBc 18-27 [5]: induction of a CTL response specific for HBc 18-27

ISQAVHAAHAEINE-TYQRTRALV (ISQAVHAAHAEINETYQRTRALV) [Peptide 932.02]
comparison of constructs and formulations [3]: superior to mixing the T helper+CTL (i.e., non-linked) and worked well in IFA, but not well in saline or Alum

Thr-Pro-Pro-Ala-Tyr-Arg-Pro-Pro-Asn-Ala-Pro-Ile-Leu (TPPAYRPPNAPIL) [Peptide 875.23]
HBc18-27-specific CTL response [4]: no HBc18-27-specific CTL response is detected
HBc18-27-specific CTL response ([4]; listed as T helper peptide): did not induce HBc-specific CTL

Asn-Cys-Thr-Cys-Ile-Pro-Ile-Pro-Ser-Ser-Trp-Ala-Phe-Gly-Lys-Phe-Leu-Trp-Glu-Trp [Peptide 799.08]
CTL response and its MHC class I mediation [1]: induces a CTL response which is mediated by at least the MHC class I molecule HLA-A2
representation of CTL epitopes [1]: clearly represent CTL epitopes
CTL lysis of Jurkat A2/K^b target cells [1]: induced CTL lysis of Jurkat A2 /K^b target cells above background
